From publication PMC2788236 (The Journal of infectious diseases, 2009)

Legend:
[1] = tested on: western equine encephalitis virus replicon; assay: microbe, parasite or virus in culture; format: cell-based
Fort Morgan virus (FMV) [2] = format: cell-based
Fort Morgan virus (FMV) [3] = tested on: Fort Morgan virus (FMV)
Fort Morgan virus (FMV) [4] = assay: microbe, parasite or virus in culture; conditions: BE(2)-C, 48 h, read-out: cell viability of FMV-infected cells
Sindbis virus (SINV) = assay: microbe, parasite or virus in culture; conditions: BE(2)-C, 48 h, read-out: cell viability of SINV-infected cells

Row | SMILES | IC50, dose-response analysis (SAR, figure 4) [1] | selectivity index (CC50/IC50 ratio) [1] | suppression of fLUC expression [1] | further results
1 | O=C(NCc1ccccc1)C1CCN(C(=O)c2cc3sccc3n2Cc2ccc(F)cc2)CC1 [CCG32088] | submicromolar | – | – | –
2 | O=C(NCc1ccco1)C1CCN(C(=O)c2cc3sccc3n2Cc2ccc(F)cc2)CC1 [CCG32091, 1-({4-[(4-fluorophenyl)methyl]-4H-thieno[3,2-b]pyrrol-5-yl}-carbonyl)-N-(furan-2-ylmethyl)piperidine-4-carboxamide] | – | > 20 | – | suppression of infectious FMV production (Fort Morgan virus (FMV) [2]): > 90%; concentration effectively suppressing FMV-induced cytopathic effect (as low as) (Fort Morgan virus (FMV) [3]): ≤ 3 µmol/L; viability at 12.5 µM (Fort Morgan virus (FMV) [4]): 70%; viability at 12.5 µM (Sindbis virus (SINV)): 50%
3 | O=C(NCc1ccco1)C1CCN(C(=O)c2cc3sccc3n2Cc2ccc(Cl)cc2)CC1 [CCG32095] | submicromolar | – | – | –
4 | COc1c(C)c2c(c(O)c1C/C=C(\C)CCC(=O)O)C(=O)OC2 [mycophenolic acid] | – | – | ~ 80% | –
5 | NC(=O)c1ncn([C@@H]2O[C@H](CO)[C@@H](O)[C@H]2O)n1 [ribavirin] | – | 19 | ~ 80% | IC50 ([1]; Western equine encephalitis virus, BSR-T7/5, read-out: IC50, inhibition of fLUC activity): 16 µM
